Laboratory results taken from US12533385B2, “Use of mulberry twig alkaloids in preparation of drug for treating polycystic ovarian syndrome” (priority 2022, dated 2026).

Tested on: LZ+HFD-induced PCOS model
Assay: Pharmacodynamic experiment of mulberry extract on LZ+HFD-induced PCOS model (Experimental Example 11, incl. expanded scale)
Assay type: in vivo, SD rats
Conditions: Met. 125 mg/kg/d, expanded scale 18 rats/group, monitored 10 days from day 10 of treatment; model group 97%, blank about 59%
Experimental: Test methods for the hormones are as follows: • E2: estradiol radioimmunoassay KIT—HTA Co., Ltd. (SFDA approval No.: 520033010); • LH: Iodine[^125I] Human Luteinizing Hormone Radioimmunoassay Kit (SFDA approval No.: 510950161); • PRL: Iodine[^125I] Prolactin Radioimmunoassay Kit (SFDA approval No.: S10950161); • T: Iodine[^125I] Testosterone Radioimmunoassay Kit (SFDA approval No.: S10940093); • ADP, GnRH, SHBG, and AMH in serum of each animal were tested using Elisa kits; • P: Progesterone Radioimmunoassay Kit—Union Medical & Pharmaceutical Technology (Tianjin) Co., Ltd. (SFDA approval No.: S10950202).
The drugs were formulated as same as in Experimental Example 10.
Eighteen 3-week-old female SD rats with good health and shiny fur were selected and adaptively fed for 3 days, and then randomized into a blank group, a model group, and a dosing group. After fed with high-fat diets for 3 weeks, the rats in the model group and the dosing group were administered with LZ (1 mg/kg/d) via gavage for 6 weeks, while being fed with HFD (high-fat diets (research diets D12492)), and the PCOS rat models were constructed. After the models were evaluated as success, the rats in the dosing group were administered according to the dosage and mode listed in the table, during which an equal amount of normal saline was given to the blank group and the model group. […]

CN(C)C(=N)N=C(N)N [Met., Metformin] was tested, and the “share of diestrus/metestrus in the estrous cycle” value was 74%.
